# Where “and” joins values, the source holds several entries; their conditions need not be identical. Equal entries are not always repeated. Structures can show the parent of a compound that is named as a salt. Where two headings read alike, the source gives them in different places.
# Columns and labels:
# [1] = tested on: AMO-1; assay: Antiproliferation assay AMO-1 (Assay 7); assay type: cell-based; conditions: AMO-1 cells, CellTiter-Glo, single determinations, read-out: IC50 Antiproli AMO-1
# Description: (§1) Assessment of the Anti-Proliferative Effect of Compounds in Different Cell Lines
# (§2) The impact of compounds on the proliferation of different cell lines was assessed using the CellTiter-Glo® Luminescent Cell Viability reagent from Promega (G7573).
# (§3) In parallel, cells were plated in a reference (day 0) plate for time zero determination.
# (§4) Rim wells were excluded. The cells were incubated for 72 h hours in a humidified incubator at 37° C. The day 0 plate was measured by adding 30 μL/well of CTG solution (CellTiter-Glo® Luminescent Cell Viability reagent, Promega G7573) to time zero wells in the reference plate followed by a 10 minutes incubation and luminescence reading at 0.1 ms. using the PHERAstar FS microplate reader (BMG Labtech).
# (§5) After 72 h incubation, the treated plates were measured in the same way as the day 0 plate mentioned above.
# [2] = tested on: A2780; assay: Antiproliferation assay A2780 (Assay 7); assay type: cell-based; conditions: A2780 cells, CellTiter-Glo, single determinations, read-out: IC50 Antiproli A2780
# Description: as §1, §2, §3, §4, §5
# [3] = tested on: SUDHL5; assay: Induction of cytotoxicity, SUDHL5 (Assay 6); conditions: read-out: IC50 Cytotox SUDHL5 [M] (median), SUDHL5 cells, 5 h, CellTiter-Glo
# Description: In principle, compounds that induce apoptosis will concomitantly induce cell cytotoxicity. Therefore, cytotoxicity assays were run in parallel in SUDHL5 and SUDHL10 cells.
# The different cell lines were plated in culture medium (RPMI 1640 [GIBCO #22400-089] supplemented with 10% Fetal Bovine Serum) at a density of 3,300 cells in 30 μl/well in a sterile, solid black, flat bottom, polystyrene, TC-treated 384-well microplate (Corning #3571) using Multidrop Combi Reagent Dispenser. As a control, medium without cells was also added to the plate. Cells were incubated in a humidified incubator at 37° C. overnight. On the next day, the cells were treated with compounds (stock solution, 10 mM in DMSO) using the HP D300 Digital Dispenser in a concentration range of 3.3×10e-5 M (33 μM) to 5×10e-9 M (5 nM) in a single-dot curve with at least 16 dilutions and a DMSO concentration of 0.33%. Rim wells were excluded. The cells were incubated for 5 h hours in a humidified incubator at 37° C. After this incubation, 30 μl of CellTiter-Glo® Luminescent Cell Viability reagent (Promega, G7573) was added to each well using the Multidrop Combi Reagent Dispenser, followed by 15 min incubation on a shaker at room temperature. Finally, luminescence was read at 0.1 ms, with a gain of 3000 using the PHERAstar FS microplate reader (BMG Labtech).
# The Bella DRC Master Sheet was used to calculate IC50s, with fixed CI=0 and C0=1.
# [4] = tested on: SUDHL10; assay: Induction of cytotoxicity, SUDHL10 (Assay 6); conditions: read-out: IC50 Cytotox SUDHL10 [M] (median), SUDHL10 cells, 5 h, CellTiter-Glo
# [5] = tested on: SUDHL5; assay: Antiproliferation assay SUDHL5 (Assay 7); assay type: cell-based; conditions: SUDHL5 cells, CellTiter-Glo, median, read-out: IC50 Antiproli SUDHL5 [M] (median)
# Description: as §1, §2, §3, §4, §5
# [6] = target: MCL-1 (Homo sapiens (Human), UniProt Q07820, K194A/K197A/R201A); assay: Protein-protein interaction assay MCL-1/Noxa BH3 peptide (MCL-1 assay), TR-FRET; assay type: binding; conditions: MCL-1/Noxa BH3 peptide TR-FRET; median
# Description: Protein-Protein Interaction Assay: MCL-1/Noxa BH3 Peptide (MCL-1 Assay)
# The dose-dependent inhibition by the compounds described in this invention of the interaction between MCL-1 and the BH3 domain of Noxa (both human) was determined using a steady state binding competition assay with time-resolved fluorescence energy transfer (TR-FRET) readout. For that purpose MCL-1 (amino acids 173-321, N-terminal fused to Maltose Binding Protein (MBP) SEQ ID 1)) and a synthetic Noxa BH3-derived peptide of sequence Biotin-PEG2-PEG2-PAELEVE-Nva-ATQLRRFGDKLNFRQKLL-amide (SEQ ID 2) served as protein receptor and tracer ligand respectively. The MBP-MCL-1 was purchased from Beryllium (Bedford, Mass., USA). The expression and purification of this protein construct has been described elsewhere (DOI:10.1371/journal.pone.0125010). The Noxa BH3-derived peptide can be obtained from e.g. Biosyntan (Berlin, Germany).
# In the assay 11 different concentrations of each compound (0.1 nM, 0.33 nM, 1.1 nM, 3.8 nM, 13 nM, 44 nM, 0.15 μM, 0.51 μM, 1.7 μM, 5.9 μM and 20 μM) were typically measured as duplicates in the same microtiter plate. For that, 100-fold concentrated DMSO solutions were prepared by serial dilutions (1:3.4) of a 2 mM stock solution in a clear, 384-well microtiter plate (Greiner Bio-One, Frickenhausen, Germany). From there, 50 nl were transferred in a dark test plate (Greiner Bio-One, Frickenhausen, Germany). The assay was initiated by addition of 2 μl of a 2,5-fold concentrated MBP-MCL-1 solution (usually for a 1 nM end concentration in 5 μl reaction volume) in aqueous assay buffer [50 mM Tris/HCl pH 7, 100 mM sodium chloride (NaCl), 50 mM potassium fluoride (KF), 0.005% Tween-20, 2 mM DTT, 0.1% bovine gamma globulin (BGG)] to the compounds in the assay plate. This was followed by a 10-minute incubation step at 22° C. for pre-equilibration of the putative complex between MBP-MCL-1 and the compounds. After that, 3 μl of a 1.67-fold concentrated solution (in assay buffer) consisting of Noxa BH3-derived peptide (1 nM end concentration) and TR-FRET detection reagents [1.67 nM anti-MBP-Eu cryptate and 1.67 nM streptavidin-XL665 (both from Cisbio Bioassays, Codolet, France)], were added.
# The mixture was incubated in the dark for one hour at 22° C. and then overnight at 4° C. The formation of MCL-1/Noxa complexes was determined by measuring the resonance energy transfer of the anti-MBP-Eu-cryptate antibody to the streptavidin-XL665 present in the reaction. For that purpose, the fluorescence emission at 620 nm and 665 nm after excitation at 330-350 nm was measured in a TR-FRET measuring instrument, for instance a Rubystar or a Pherastar (both from BMG Lab Technologies, Offenburg, Germany) or a Viewlux (Perkin-Elmer). The ratio of the emission at 665 nm and at 622 nm was used as indicator of the amount of MCL-1/NOXA complexes present.
# The resulting data (ratio) were normalized, taking 0% inhibition as the mean value of control measurements (usually 32 data points) where all reagents were included. In this case 50 nl DMSO were used instead of compounds. A 100% inhibition corresponded to the mean value of control measurements (usually 32 data points) where all reagents except MCL-1 were included. IC50 values were determined by regression analysis based on a 4 parameter equation (minimum, maximum, IC50, Hill; Y=Max+(Min−Max)/(1+(X/IC50)^Hill) using the Screener Software (Genedata).
# [7] = tested on: SUDHL10; assay: Induction of caspase-3/7 activity, SUDHL10 (Assay 4); assay type: cell-based; conditions: SUDHL10 cells
# Description: (§6) Induction of Caspase-3/7 Activity upon Treatment of Cells with Selected Compounds
# (§7) The BH3-domain of MCL-1 sequesters pro-apoptotic proteins, thereby inhibiting apoptosis. In contrast, MCL-1 inhibitors are expected to antagonize this effect leading to an increase in apoptosis, which can be determined by measuring the activity of caspase-3/7.
# (§8) The activity of caspase-3/7 was determined in DLBCL (Diffuse large B-cell lymphoma) cell lines (SUDHL5 and SUDHL10) upon treatment with different compounds, using the Caspase-Glo® 3/7 reagent from Promega (G8092).
# (§9) Rim wells were excluded. The cells were incubated for 3 h hours in a humidified incubator at 37° C.
# (§10) For the evaluation of the results, the background measured with “medium-only” was subtracted from all other values. […] The Bella DRC Master Sheet was used to calculate EC50s, with fixed C0=1 and Cl=plateau/max induction for the reference compound.
# [8] = tested on: SUDHL5; assay: Induction of caspase-3/7 activity, SUDHL5 (Assay 4); assay type: cell-based; conditions: SUDHL5 cells
# Description: as §6, §7, §8, §9, §10
# [9] = tested on: MV-4-11; assay: Antiproliferation assay MV-4-11 (Assay 7); assay type: cell-based; conditions: MV-4-11 cells, CellTiter-Glo, single determinations, read-out: IC50 Antiproli MV-4-11
# Description: as §1, §2, §3, §4, §5
# [10] = Homo sapiens, SU-DHL10, 3 h, Caspase-Glo 3/7, median
# [11] = Homo sapiens, SU-DHL-5, 3 h, Caspase-Glo 3/7, median
# MCL-1, sequence (Q07820 whole entry K194A/K197A/R201A, looked up): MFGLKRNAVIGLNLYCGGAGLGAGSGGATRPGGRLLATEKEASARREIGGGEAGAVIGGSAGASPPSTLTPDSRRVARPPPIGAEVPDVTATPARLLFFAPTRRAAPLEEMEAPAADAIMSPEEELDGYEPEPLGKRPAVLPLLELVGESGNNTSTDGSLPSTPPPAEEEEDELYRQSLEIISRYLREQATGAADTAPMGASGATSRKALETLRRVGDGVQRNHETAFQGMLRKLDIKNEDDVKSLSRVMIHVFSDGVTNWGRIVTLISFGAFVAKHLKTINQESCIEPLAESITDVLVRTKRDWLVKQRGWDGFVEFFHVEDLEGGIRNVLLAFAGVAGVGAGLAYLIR
Structure (SMILES),"IC50 ([1]; Homo sapiens, AMO1, 72 h)","IC50 ([2]; Homo sapiens, A2780, 72 h)","IC50 ([3]; Homo sapiens, SU-DHL-5, 5 h)","IC50 ([4]; Homo sapiens, SU-DHL10, 5 h)","IC50 ([5]; Homo sapiens, SU-DHL-5, 72 h)",IC50 [6],"EC50 [7, 10]","EC50 [8, 11]","IC50 ([2]; 72 h, listed as 08)",IC50 [3],IC50 [4],IC50 ([5]; 72 h),"IC50 ([9]; 72 h, listed as 08)","EC50 ([7]; 3 h, Caspase-Glo 3/7, median)","EC50 ([8]; 3 h, Caspase-Glo 3/7, median)",IC50 ([1]; 72 h),IC50 ([2]; 72 h),IC50 ([9]; 72 h),"IC50 ([9]; Homo sapiens, MV4-11, 72 h)"
"CCc1c2c(nn1C)COCCCCn1c(C(=O)O)c(CCCOc3ccc(F)c4ccccc34)c3ccc(F)c-2c31 (racemic) [Example 26, (rac)-12-ethyl-13-fluoro-1-(3-((4-fluoronaphthalen-1-yl)oxy)propyl)-11-methyl-4,5,6,7,9,11-hexahydropyrazolo[4′,3′:9,10][1]oxa[6]azacycloundecino[8,7,6-hi]indole-2-carboxylic acid]",4.31 µM,10.2 µM,1.8e-06 M,3.7e-06 M,2.2e-06 M,0.0014 µM,3.3 µM,1.5 µM,–,–,–,–,–,–,–,–,–,–,–
"CCc1c2c(nn1C)COCCCCn1c(C(=O)O)c(CCCOc3cccc4ccccc34)c3ccc(F)c-2c31 (single isomer, unassigned; enantiomer 2) [Example 8, 3-ethyl-4-fluoro-2-methyl-7-{3-[(naphthalen-1-yl)oxy]propyl}-2,10,11,12,13,15-hexahydro-pyrazolo[4′,3′:9,10][1,6]oxazacycloundecino[8,7,6-hi]indole-8-carboxylic acid-N-ethylethanamine salt (enantiomer 2)]",–,–,–,–,–,0.026 µM,–,–,20 µM,2.7e-05 M,> 3.3e-05 M,1.5e-05 M,21.3 µM,> 33 µM,30 µM,–,–,–,–
"Cc1c2c(nn1C)COCCCCn1c(C(=O)O)c(CCCOc3cccc4cc(F)ccc34)c3ccc(F)c-2c31 (single isomer, unassigned; enantiomer 2) [Example 14, 4-fluoro-7-{3-[(6-fluoronaphthalen-1-yl)oxy]propyl}-2,3-dimethyl-2,10,11,12,13,15-hexahydro-pyrazolo[4′,3′:9,10][1,6]oxazacycloundecino[8,7,6-hi]indole-8-carboxylic acid-N-ethylethanamine salt (enantiomer 2)]",–,–,–,–,–,0.017 µM,–,–,–,6e-06 M,1.2e-05 M,4e-06 M,–,14 µM,5.4 µM,7.54 µM and 11.6 µM,19.8 µM,–,–
"CCc1nn(C)c2c1-c1c(F)ccc3c(CCCOc4cccc5cc(F)ccc45)c(C(=O)O)n(c13)CCCCOC2 (single isomer, unassigned; enantiomer 2) [Example 40, 3-ethyl-4-fluoro-7-{3-[(6-fluoronaphthalen-1-yl)oxy]propyl}-1-methyl-1,10,11,12,13,15-hexahydropyrazolo[4′,3′:9,10][1,6]oxazacycloundecino[8,7,6-hi]indole-8-carboxylic acid-N-ethylethanamine salt (enantiomer 2)]",–,–,–,–,–,0.04 µM,–,–,–,2.3e-05 M,> 2.5e-05 M,1.4e-05 M,–,> 33 µM,21 µM,> 33 µM,29.6 µM,14.3 µM and 11.6 µM,–
"Cc1c2c(nn1C)CNCCCCn1c(C(=O)O)c(CCCOc3cccc4ccccc34)c3ccc(F)c-2c31 (single isomer, unassigned; enantiomer 2) [Example 49, 4-fluoro-2,3-dimethyl-7-{3-[(naphthalen-1-yl)oxy]propyl}-10,11,12,13,14,15-hexahydro-2H-pyrazolo[3′,4′:8,9][1,6]diazacycloundecino[10,11,1-hi]indole-8-carboxylic acid (enantiomer 2)]",–,–,–,–,–,0.04 µM,–,–,–,> 2.7e-05 M,> 3.3e-05 M,1e-05 M,–,> 33 µM,> 33 µM,> 33 µM,15.1 µM,18.9 µM and 23.3 µM,–
"Cc1c2c(nn1C)C[N+](C)(C)CCCCn1c(C(=O)O)c(CCCOc3cccc4ccccc34)c3ccc(F)c-2c31 [Example 50, 8-carboxy-4-fluoro-2,3,14,14-tetramethyl-7-[3-(1-naphthyloxy)propyl]-10,11,12,13,14,15-hexa-hydro-2H-pyrazolo[3′,4′:8,9][1,6]diazacycloundecino[10,11,1-hi]indol-14-ium trifluroacetate]",–,> 33 µM,1.6e-05 M,> 3.3e-05 M,6.1e-06 M,0.00084 µM,> 33 µM,20 µM,–,–,–,–,–,–,–,–,–,–,13.4 µM

# Source: patent US11286263B2, “Macrocyclic fluorine substituted indole derivatives” (The Broad Institute, Inc., priority 2017, dated 2022)
